Assay results taken from patent publication US20200289514A1, “Novel Pyrazolo Pyrimidine Derivatives” (Novartis AG, priority 2015, published 2020).
Converted amounts (≈) assume the structure as drawn. Like-named read-outs stand apart in the source and are kept apart here.

How the values were obtained:
[1] = target: T1, C-domain of MALT1 (amino acids 329-824) (Homo sapiens, UniProt Q9UDY8); test: MALT1 Biochemical Assay - Version 1 (fluorescence lifetime)
T1 sequence (Q9UDY8 329-824): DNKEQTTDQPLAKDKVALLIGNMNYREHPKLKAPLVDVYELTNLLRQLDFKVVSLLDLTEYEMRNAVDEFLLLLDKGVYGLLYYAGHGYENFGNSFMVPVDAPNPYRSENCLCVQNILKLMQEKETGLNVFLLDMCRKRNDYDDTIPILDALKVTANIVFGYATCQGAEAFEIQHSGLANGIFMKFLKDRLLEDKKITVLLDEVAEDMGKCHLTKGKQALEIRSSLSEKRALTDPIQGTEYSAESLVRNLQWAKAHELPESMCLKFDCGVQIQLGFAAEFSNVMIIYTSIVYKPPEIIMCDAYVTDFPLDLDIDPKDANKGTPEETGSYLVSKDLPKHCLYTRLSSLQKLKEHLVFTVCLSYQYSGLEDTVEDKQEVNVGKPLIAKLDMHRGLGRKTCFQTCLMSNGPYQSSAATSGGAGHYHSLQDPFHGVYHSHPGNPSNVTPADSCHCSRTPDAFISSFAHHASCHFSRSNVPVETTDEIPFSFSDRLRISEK
Experimental: The readout parameter is the increase of fluorescence lifetime over time, proportional to enzyme activity.
The assay employs a short peptide substrate labeled with the single fluorophore PT14 as a fluorescence lifetime probe sensitive to the cleavage state of the substrate (PT14: 6-(9-oxo-9H-acridin-10-yl)-hexanoate, AssayMetrics, UK). […] Test compounds were dissolved in 100% (v/v) DMSO or a mixture containing 90% (v/v) DMSO and 10% (v/v) H2O at a stock concentration of 100 mM. Serial dilutions of test compounds were prepared using either 100% (v/v) DMSO or a mixture containing 90% (v/v) DMSO and 10% (v/v) H2O.
where y is the %-inhibition at the inhibitor concentration, x. A1 is the lowest inhibition value, and A2 the maximum inhibition value. The exponent, p, is the Hill coefficient.

Human IL2 promoter = Human IL2 promoter reporter gene assay (RGA) in Jurkat cells; assay type: cell-based; details: Jurkat clone K22 290_H23, anti-CD28 mAb + PMA, 5.5 h
Experimental: Human IL2 Promoter Reporter Gene Assay (RGA) in Jurkat Cells
The transfected Jurkat clone K22 290_H23 was propagated in RPMI 1640 supplemented with 10% heat inactivated fetal calf serum, 50 μM 2-mercaptoethanol and 1 mg/ml Geneticin. The cell concentration should not exceed 1×10e6/ml during culturing. The cells should not exceed passage 30. Prior to the assay the cells were washed and prepared to the concentration of 2×10e6 cells/ml.
Compound dilutions were made as 2×-concentrated solutions then diluted ½ by addition to cells. Two hundred and fifty μl of compound dilution and 250 μl of cells were mixed together in wells of a 96-deep well plate. Cells/compounds premix were incubated 30 min at 37° C. and 5% CO2 directly in the deep well plate.
After pre-incubation of cells with compounds, cells were stimulated with anti-CD28 mAb (clone 15E8) at 3 μg/ml+PMA at 1 μg/ml. Both co-stimulants were diluted in culture medium at a 10×-concentrated solution. 10 μl of co-stimulants were pipetted into the white 96-well plates and 100 μl of cell/compound mix was immediately added in duplicates. The cells were stimulated for 5.5 h at 37° C. and 5% CO2.
After cell stimulation, 50 μl of BriteLitePlus reagent (Perkin Elmer) was added to each well and the bioluminescence was measured with a Wallac EnVision reader (Perkin Elmer).

[2] = Solubility in aqueous and biorelevant media; assay type: physicochemical

Structure (SMILES) | IC50 [1] [nM] | IC50 (Human IL2 promoter) [nM] | further results
CO[C@@H](C)c1c(NC(=O)Nc2cnc(-n3nccn3)c(C#N)c2)cnc2cc(F)nn12 [Example 18, (S)-1-(5-cyano-6-(2H-1,2,3-triazol-2-yl)pyridin-3-yl)-3-(2-fluoro-7-(1-methoxyethyl)pyrazolo [1,5-a]pyrimidin-6-yl)urea] | 4 | 19 | –
CO[C@@H](C)c1c(NC(=O)Nc2cncc(C#N)c2)cnc2cc(C)nn12 [Example 1, (S)-1-(5-cyanopyridin-3-yl)-3-(7-(1-methoxyethyl)-2-methylpyrazolo [1,5-a]pyrimidin-6-yl)urea] | 92 | 133 | solubility ([2]; 19.12 mM Sodium Maleate Fasted state simulated intestinal fluid (FaSSIF) pH 6.5, [pH] 6.63, read-out: Solubility (mg/mL) [pH]): 0.018 mg/mL (≈ 51.2 µM); solubility ([2]; FaSSIF pH 6.5, [pH] 6.56, read-out: Solubility (mg/mL) [pH]): 0.022 mg/mL (≈ 62.6 µM); solubility ([2]; Fed state intestinal fluid FeSSIF pH 5.8, [pH] 5.85, read-out: Solubility (mg/mL) [pH]): 0.027 mg/mL (≈ 76.8 µM); solubility ([2]; Simulated Gastric Fluid (SGF) pH 2.0, [pH] 2.00, read-out: Solubility (mg/mL) [pH]): 0.024 mg/mL (≈ 68.3 µM); solubility ([2]; Water, [pH] 7.65, read-out: Solubility (mg/mL) [pH]): 0.019 mg/mL (≈ 54.1 µM); solubility ([2]; aqueous buffer, 100 mM Sodium Acetate pH 4.0, [pH] 4.04, read-out: Solubility (mg/mL) [pH]): 0.019 mg/mL (≈ 54.1 µM); solubility ([2]; simulated gastric fluid, HCl/KCl pH 1.0, [pH] 1.10, read-out: Solubility (mg/mL) [pH]): 0.049 mg/mL (≈ 139 µM)
CO[C@H](c1c(NC(=O)Nc2cnc(-n3nccn3)c(Cl)c2)cnc2cc(F)nn12)C(C)C [Example 14, (S)-1-(5-chloro-6-(2H-1,2,3-triazol-2-yl)pyridin-3-yl)-3-(2-fluoro-7-(1-methoxy-2-methylpropyl)pyrazolo [1,5-a]pyrimidin-6-yl)urea] | 3 | 6 | –
C[C@H](O)c1c(NC(=O)Nc2ccnc(C(F)F)c2)cnc2cc(F)nn12 [Example 40, (S)-1-(2-(difluoromethyl)pyridin-4-yl)-3-(2-fluoro-7-(1-hydroxyethyl)pvrazolo[1,5-a]pyrimidin-6-yl)urea] | 11 | 100 | –
CO[C@@H](C)c1c(NC(=O)Nc2cc(Cl)cnc2OC[C@H](C)N)cnc2cc(Cl)nn12 [Example 41, 1-(2-((S)-2-aminopropoxy)-5-chloropyridin-3-yl)-3-(2-chloro-7-((S)-1-methoxyethyl)pvrazolo[1,5-a]pyrimidin-6-yl)urea] | 21 | 50 | –
CO[C@@H](C)c1c(NC(=O)Nc2cnc(-n3nccn3)c(C#N)c2)cnc2cc(Cl)nn12 [Example 11, (S)-1-(2-chloro-7-(1-methoxyethyl)pyrazolo[1,5-a]pyrimidin-6-yl)-3-(5-cyano-6-(2H-1,2,3-triazol-2-yl)pyridin-3-yl)urea] | 2 | 12 | –
CO[C@@H](C)c1c(NC(=O)Nc2cnc(-n3nccn3)c(C#N)c2)cnc2cc(C)nn12 [Example 27, (S)-1-(5-cyano-6-(2H-1,2,3-triazol-2-yl)pyridin-3-yl)-3-(7-(1-methoxyethyl)-2-methylpyrazolo[1,5-a]pyrimidin-6-yl)urea] | 8 | 35 | –
CO[C@H](c1c(NC(=O)Nc2cnc(-n3nccn3)c(C(F)(F)F)c2)cnc2cc(Cl)nn12)C(C)C [Example 8, (S)-1-(6-(2H-1,2,3-triazol-2-yl)-5-(trifluoromethyl)pyridin-3-yl)-3-(2-chloro-7-(1-methoxy-2-methylpropyl)pyrazolo [1,5-a]pyrimidin-6-yl)urea] | 2 | 38 | –
CO[C@@H](C)c1c(NC(=O)Nc2ccnc(C(F)F)c2)cnc2cc(F)nn12 [Example 2, (S)-1-(2-(difluoromethyl)pyridin-4-yl)-3-(2-fluoro-7-(1-methoxyethyl)pyrazolo[1,5-a]pyrimidin-6-yl)urea] | 18 | 47 | solubility ([2]; Free form, Fasted state simulated intestinal fluid FaSSIF (V2) pH 6.5, [pH] 6.64, read-out: Solubility mg/mL [pH] Free form): 0.041 mg/mL (≈ 108 µM); solubility ([2]; Free form, Fed state intestinal fluid FeSSIF (V2) pH 5.8, [pH] 5.85, read-out: Solubility mg/mL [pH] Free form): 0.093 mg/mL (≈ 245 µM); solubility ([2]; Free form, Simulated Gastric Fluid (SGF) pH 2.0, [pH] 1.99, read-out: Solubility mg/mL [pH] Free form): 0.338 mg/mL (≈ 889 µM); solubility ([2]; Free form, Water, [pH] 7.76, read-out: Solubility mg/mL [pH] Free form): 0.029 mg/mL (≈ 76.2 µM); solubility ([2]; aqueous buffer, Free form, 19.12 mM Sodium Maleate (blank FaSSIF) pH 6.5, [pH] 6.61, read-out: Solubility mg/mL [pH] Free form): 0.026 mg/mL (≈ 68.4 µM); solubility ([2]; aqueous buffer, Free form, 100 mM Sodium Acetate pH 4.0, [pH] 3.99, read-out: Solubility mg/mL [pH] Free form): 0.032 mg/mL (≈ 84.1 µM); solubility ([2]; simulated gastric fluid, Free form, HCl/KCl pH 1.0, [pH] 1.12, read-out: Solubility mg/mL [pH] Free form): > 2 mg/mL
COCC(OC)c1c(NC(=O)Nc2cnc(-n3nccn3)c(C#N)c2)cnc2cc(Cl)nn12 (stereo not drawn) [Example 19, 1-(2-chloro-7-(1,2-dimethoxyethyl)pyrazolo [1,5-a]pyrimidin-6-yl)-3-(5-cyano-6-(2H-1,2,3-triazol-2-yl)pyridin-3-yl)urea] | 9 | 56 | –
CO[C@@H](C)c1c(NC(=O)Nc2cc(Cl)nc(C(=O)N(C)C)c2)cnc2cc(Cl)nn12 [Example 28, (S)-6-chloro-4-(3-(2-chloro-7-(1-methoxyethyl)pyrazolo [1,5-a]pyrimidin-6-yl)ureido)-N, N-dimethylpicolinamide] | 13 | 45 | –
CO[C@@H](C)c1c(NC(=O)Nc2cnc(-n3nccn3)c(Cl)c2)cnc2cc(Cl)nn12 [Example 5, (S)-1-(5-chloro-6-(2H-1,2,3-triazol-2-yl)pyridin-3-yl)-3-(2-chloro-7-(1-methoxyethyl)pyrazolo[1,5-a]pyrimidin-6-yl)urea] | – | 19 | solubility ([2]; Fasted state simulated intestinal fluid (FaSSIF), [pH] 6.59, read-out: Solubility (mg/mL) [pH]): 0.0044 mg/mL (≈ 9.82 µM); solubility ([2]; Fed state intestinal fluid (FeSSIF), [pH] 6.87, read-out: Solubility (mg/mL) [pH]): 0.0082 mg/mL (≈ 18.3 µM); solubility ([2]; Simulated Gastric Fluid (SGF), [pH] 2.55, read-out: Solubility (mg/mL) [pH]): 0.0168 mg/mL (≈ 37.5 µM); solubility ([2]; Water, [pH] 7.39, read-out: Solubility (mg/mL) [pH]): 0.005 mg/mL (≈ 11.2 µM); solubility ([2]; medium of pH 1.2 (composition not named), simulated gastric fluid, pH 1.2, [pH] 1.17, read-out: Solubility (mg/mL) [pH]): 0.0038 mg/mL (≈ 8.48 µM); solubility ([2]; medium of pH 3.0 (composition not named), aqueous buffer, pH 3.0, [pH] 3.14, read-out: Solubility (mg/mL) [pH]): 0.0052 mg/mL (≈ 11.6 µM); solubility ([2]; medium of pH 4.7 (composition not named), aqueous buffer, pH 4.7, [pH] 4.71, read-out: Solubility (mg/mL) [pH]): 0.0048 mg/mL (≈ 10.7 µM); solubility ([2]; medium of pH 7.4 (composition not named), aqueous buffer, pH 7.4, [pH] 7.34, read-out: Solubility (mg/mL) [pH]): 0.004 mg/mL (≈ 8.92 µM); solubility ([2]; medium of pH 9.0 (composition not named), aqueous buffer, pH 9.0, [pH] 8.09, read-out: Solubility (mg/mL) [pH]): 0.0055 mg/mL (≈ 12.3 µM)
COc1ncc(NC(=O)Nc2cnc3cc(F)nn3c2[C@H](C)OC)cc1C#N [Example 6, (S)-1-(5-cyano-6-methoxypyridin-3-yl)-3-(2-fluoro-7-(1-methoxyethyl)pyrazolo[1,5-a]pyrimidin-6-yl)urea] | 4 | 41 | –
CO[C@@H](C)c1c(NC(=O)Nc2cncc(Cl)c2)cnc2cc(Cl)nn12 [Example 35, (S)-1-(2-chloro-7-(1-methoxyethyl)pyrazolo [1,5-a]pyrimidin-6-yl)-3-(5-chloropyridin-3-yl)urea] | 10 | 17 | –
COCC1(c2c(NC(=O)Nc3cncc(C#N)c3)cnc3cc(Cl)nn23)CC1 [Example 9, 1-(2-chloro-7-(1-(methoxymethyl)cyclopropyl)pyrazolo[1,5-a]pyrimidin-6-yl)-3-(5-cyanopyridin-3-yl)urea] | 29 | 93 | –
CO[C@@H](C)c1c(NC(=O)Nc2cncc(Cl)c2)cnc2cc(F)nn12 [Example 32, (S)-1-(5-chloro-pyridin-3-yl)-3-(2-fluoro-7-(1-methoxyethyl)pyrazolo [1,5-a]pyrimidin-6-yl)urea] | 11 | 40 | –
